Values after ≈ are worked out from the molar mass of the structure shown.
Assays:
B. cereus ATCC 11778 = test: NCCLS broth microdilution MIC; format: cell-based, Bacillus cereus; conditions: for Minimum Inhibitory Concentration (MIC): C = B. cereus ATCC 11778
Method: (§1) Compounds according to this invention were screened for their in vitro activities against selected species of bacteria and fungi. The minimal inhibition concentration (MIC) of these compounds was determined using the National Committee for Clinical Laboratory Standards (NCCLS) broth microdilution assay in microtiter plates, as set forth in: (1) the guidelines of the National Committee for Clinical Laboratory Standards (NCCLS) Document M7-A4 (NCCLS, 1997); (2) the guidelines of the National Committee for Clinical Laboratory Standards (NCCLS) Document M11-A4 (NCCLS, 1997); and (3) the guidelines and reference method of the National Committee for Clinical Laboratory Standards (NCCLS) Document M27-T (NCCLS, 1995). For antifungal essays, the method recommended in Murray, P R., 1995 Manual of Clinical Microbiology (ASM Press, Washington, D.C.), was employed. […]

S. pneumoniae ATCC 49619 = test: NCCLS broth microdilution MIC; format: cell-based, Streptococcus pneumoniae; conditions: for Minimum Inhibitory Concentration (MIC): F = S. pneumoniae ATCC 49619
Method: as §1

S. aureus ATCC 29213 = test: NCCLS broth microdilution MIC; format: cell-based, Staphylococcus aureus; conditions: for Minimum Inhibitory Concentration (MIC): A = S. aureus ATCC 29213
Method: as §1

E. coli ATCC 25922 = test: NCCLS broth microdilution MIC; format: cell-based; conditions: for Minimum Inhibitory Concentration (MIC): D = E. coli ATCC 25922
Method: as §1

C. albicans ATCC 38247 = test: NCCLS broth microdilution MIC (antifungal); format: cell-based; conditions: for Minimum Inhibitory Concentration (MIC): E = C. albicans ATCC 38247
Method: as §1

E. faecalis ATCC 29212 = test: NCCLS broth microdilution MIC; format: cell-based, Enterococcus faecalis; conditions: for Minimum Inhibitory Concentration (MIC): B = E. faecalis ATCC 29212
Method: as §1

SMILES: Cn1cc(NC(=O)c2cc(NC(=O)c3cc(NC=O)cn3C)cn2C)cc1C(=O)NCCC(=N)N [Distamycin, distamycin, reference compound]
- MIC (B. cereus ATCC 11778; Bacillus cereus, ATCC11778, read-out: Minimum Inhibitory Concentration (MIC)): 4 to 12 µg/mL (≈ 8.31 to 24.9 µM)
- MIC (S. pneumoniae ATCC 49619; Streptococcus pneumoniae, ATCC49619, read-out: Minimum Inhibitory Concentration (MIC)): 12 to 32 µg/mL (≈ 24.9 to 66.5 µM)
- MIC (S. aureus ATCC 29213; Staphylococcus aureus, ATCC29213, read-out: Minimum Inhibitory Concentration (MIC)): 12 to 32 µg/mL (≈ 24.9 to 66.5 µM)
- MIC (E. coli ATCC 25922; Escherichia coli, ATCC25922, read-out: Minimum Inhibitory Concentration (MIC)): > 32 µg/mL
- MIC (C. albicans ATCC 38247; Candida albicans, ATCC38247, read-out: Minimum Inhibitory Concentration (MIC)): > 32 µg/mL
- MIC (E. faecalis ATCC 29212; Enterococcus faecalis, ATCC29212, read-out: Minimum Inhibitory Concentration (MIC)): 12 to 32 µg/mL (≈ 24.9 to 66.5 µM)

SMILES: Cn1cc(NC(=O)c2cc(NC(=O)CCNC(=O)c3cc(NC(=O)c4cc(NC(=O)c5cc(Br)c(Br)s5)cn4C)cn3C)cn2C)cc1C(=O)NCCC(=O)NCCCCN [Id-8]
- Minimum Inhibitory Concentration (MIC) (B. cereus ATCC 11778): >32 µg/mL
- Minimum Inhibitory Concentration (MIC) (S. pneumoniae ATCC 49619): +++ (+++ = MIC ≦4)
- Minimum Inhibitory Concentration (MIC) (S. aureus ATCC 29213): >32 µg/mL
- Minimum Inhibitory Concentration (MIC) (E. coli ATCC 25922): >32 µg/mL
- Minimum Inhibitory Concentration (MIC) (C. albicans ATCC 38247): >32 µg/mL
- Minimum Inhibitory Concentration (MIC) (E. faecalis ATCC 29212): +++ (+++ = MIC ≦4)

SMILES: Cn1cc(NC(=O)c2cc(NC(=O)CCNC(=O)c3cc(NC(=O)c4cc(NC(=O)c5cc(Br)c(Br)s5)cn4C)cn3C)cn2C)cc1C(=O)NCCC(=O)NCCCN [Id-9]
- Minimum Inhibitory Concentration (MIC) (B. cereus ATCC 11778): +++ (+++ = MIC ≦4)
- Minimum Inhibitory Concentration (MIC) (S. pneumoniae ATCC 49619): +++ (+++ = MIC ≦4)
- Minimum Inhibitory Concentration (MIC) (S. aureus ATCC 29213): +++ (+++ = MIC ≦4)
- Minimum Inhibitory Concentration (MIC) (E. coli ATCC 25922): >32 µg/mL
- Minimum Inhibitory Concentration (MIC) (C. albicans ATCC 38247): >32 µg/mL
- Minimum Inhibitory Concentration (MIC) (E. faecalis ATCC 29212): +++ (+++ = MIC ≦4)

SMILES: CN(C)CCCNC(=O)CCNC(=O)c1cc(NC(=O)c2cc(NC(=O)CCNC(=O)c3cc(NC(=O)c4cc(NC(=O)c5sc(Br)c(Br)c5Cl)cn4C)cn3C)cn2C)cn1C [Id-26]
- Minimum Inhibitory Concentration (MIC) (S. pneumoniae ATCC 49619): + (+ = MIC from 12 to 32, inclusive)
- Minimum Inhibitory Concentration (MIC) (S. aureus ATCC 29213): >32 µg/mL
- Minimum Inhibitory Concentration (MIC) (C. albicans ATCC 38247): >32 µg/mL
- Minimum Inhibitory Concentration (MIC) (E. faecalis ATCC 29212): >32 µg/mL

SMILES: CN(C)CCCNC(=O)CCNC(=O)c1cc(NC(=O)c2cc(NC(=O)CCNC(=O)c3cc(NC(=O)c4cscc4Cl)cn3C)cn2C)cn1C [Id-28]
- Minimum Inhibitory Concentration (MIC) (S. pneumoniae ATCC 49619): +++ (+++ = MIC ≦4)
- Minimum Inhibitory Concentration (MIC) (S. aureus ATCC 29213): +++ (+++ = MIC ≦4)
- Minimum Inhibitory Concentration (MIC) (C. albicans ATCC 38247): >32 µg/mL
- Minimum Inhibitory Concentration (MIC) (E. faecalis ATCC 29212): + (+ = MIC from 12 to 32, inclusive)

SMILES: CN(C)CCCNC(=O)CCNC(=O)c1cc(NC(=O)c2cc(NC(=O)CCNC(=O)c3cc(NC(=O)c4ccc(Cl)s4)cn3C)cn2C)cn1C [Id-29]
- Minimum Inhibitory Concentration (MIC) (S. pneumoniae ATCC 49619): >32 µg/mL
- Minimum Inhibitory Concentration (MIC) (S. aureus ATCC 29213): >32 µg/mL
- Minimum Inhibitory Concentration (MIC) (C. albicans ATCC 38247): >32 µg/mL
- Minimum Inhibitory Concentration (MIC) (E. faecalis ATCC 29212): >32 µg/mL

SMILES: Cn1cc(NC(=O)c2cc(NC(=O)c3cc(NC(=O)c4sccc4Br)cn3C)cn2C)cc1C(=O)NCCN1CCOCC1 [Ie-2]
- Minimum Inhibitory Concentration (MIC) (S. pneumoniae ATCC 49619): +++ (+++ = MIC ≦4)
- Minimum Inhibitory Concentration (MIC) (S. aureus ATCC 29213): +++ (+++ = MIC ≦4)
- Minimum Inhibitory Concentration (MIC) (C. albicans ATCC 38247): >32 µg/mL
- Minimum Inhibitory Concentration (MIC) (E. faecalis ATCC 29212): +++ (+++ = MIC ≦4)

SMILES: Cn1cc(NC(=O)c2cc(NC(=O)c3cc(NC(=O)c4cc(Br)cs4)cn3C)cn2C)cc1C(=O)NCCN1CCOCC1 [Ie-3]
- Minimum Inhibitory Concentration (MIC) (S. pneumoniae ATCC 49619): +++ (+++ = MIC ≦4)
- Minimum Inhibitory Concentration (MIC) (S. aureus ATCC 29213): ++ (++ = MIC between 4 and 12)
- Minimum Inhibitory Concentration (MIC) (C. albicans ATCC 38247): >32 µg/mL
- Minimum Inhibitory Concentration (MIC) (E. faecalis ATCC 29212): >32 µg/mL

SMILES: Cn1cc(NC(=O)c2cc(NC(=O)c3cc(NC(=O)c4cc(NC(=O)c5sccc5Cl)cn4C)cn3C)cn2C)cc1C(=O)NCCN1CCOCC1 [Ie-12]
- Minimum Inhibitory Concentration (MIC) (B. cereus ATCC 11778): +++ (+++ = MIC ≦4)
- Minimum Inhibitory Concentration (MIC) (S. pneumoniae ATCC 49619): +++ (+++ = MIC ≦4)
- Minimum Inhibitory Concentration (MIC) (E. coli ATCC 25922): >32 µg/mL
- Minimum Inhibitory Concentration (MIC) (C. albicans ATCC 38247): >32 µg/mL
- Minimum Inhibitory Concentration (MIC) (E. faecalis ATCC 29212): +++ (+++ = MIC ≦4)

SMILES: Cn1cc(NC(=O)c2cc(NC(=O)c3cc(NC(=O)c4sccc4Cl)cn3C)cn2C)cc1C(=O)NCCN1CCC(F)CC1 [Ie-13]
- Minimum Inhibitory Concentration (MIC) (B. cereus ATCC 11778): +++ (+++ = MIC ≦4)
- Minimum Inhibitory Concentration (MIC) (S. pneumoniae ATCC 49619): +++ (+++ = MIC ≦4)
- Minimum Inhibitory Concentration (MIC) (E. coli ATCC 25922): >32 µg/mL
- Minimum Inhibitory Concentration (MIC) (C. albicans ATCC 38247): >32 µg/mL
- Minimum Inhibitory Concentration (MIC) (E. faecalis ATCC 29212): +++ (+++ = MIC ≦4)
